Reference: patent US20130039956A1, “USE OF NITROCARBOXYLIC ACIDS FOR THE TREATMENT, DIAGNOSIS AND PROPHYLAXIS OF AGGRESSIVE HEALING PATTERNS” (priority 2010, published 2013)

Key:
pericardial strips = test: Cold induced injury in a whole tissue ex-vivo model (pericardium); format: cell-based, Wistar rats; details: 200 μmol, 10 min, two cooling cycles; compared with native FA; further: key: 0: not superior to native FA (control); +: Superior to native FA; ++: superior to both; +++: outstanding effect
Description: To determine whether nitrated fatty acids can be used to preserve cells and tissues from cold or cryoinjury, an in vitro model utilizing murine epicardium was established. The experimental set-up should reduce the possibility of ischemia or reperfusion injury to a minimum, but at the same time allow differentiation of the contribution of ischemia/reperfusion injury-triggered cell death, which is known to occur almost exclusively via apoptosis, whereas cell death induced by cold injury almost exclusively results in necrosis.
The pericardial sac was carefully resected in 24 anesthetized Wistar rats (180-270 g) of either sex. Care was taken to grasp the pericardium with a forceps only at the cutting edges and reduce traumatization of the central portions of the pericardium to a minimum. After resection, the cutting edge and the former apex area of the pericardium were dissected, as to obtain flat tissue strips which were placed immediately in the culture medium (DMEM) containing 10% FCS and antibiotics (penicillin, streptomycin). Tissue samples were cultured in an oxygen atmosphere at 18° C. for 2 days. […] Then the pericardial strips were cut into 4 pieces of equal size. One piece was further cultivated at 37° C. without undergoing the cooling cycles, thus, serving as the control. In each of three investigations, one piece was bathed in a solution (0.9% saline and 1% SDS) containing 200 μmol nitro-fatty acid or contained 200 μmol of the corresponding native fatty acid, for 10 min at a temperature of 18° C. One piece of pericardium was bathed in a solution without fatty acids under otherwise identical conditions. All samples were cooled by continuously decreasing from ambient temperature at a rate of 3° C./min to a minimum temperature of […]. After 1 hour, the samples were rewarmed at a rate of 3° C./min by continuously increasing the temperature until a temperature of 18° C., was achieved. Thereafter an identical cooling and rewarming cycle was performed. After the second cooling cycle, the tissue pieces were further cultured in the culture medium for 1 day allowing continuous adaptation to an ambient temperature of 37° C. For analytical preparations the pericardial pieces were out and further processed. A direct TUNEL assay (Roche) was use for quantification of apoptosis, an annexin V/propidium iodide exclusion assay (Roche) was used to quantify the number of necrotic cells, and viability was determined by the WST-8 assay. Furthermore, the LDH release was quantified in the supernatants.
To rule out that cell death has been induced by ischemia or reperfusion (reoxygenation), in one series of experiments, a control sample was incubated with an all-caspase inhibitor (Q-VD-OPH, BioVision, USA) reconstituted in DMSO before the sample was exposed to cold.

[1] = test system: Human epithelial lung cells (A549); test: Membrane protein mediated cytotoxicity (NaF) in epithelial cells, MTT assay; details: 10 and 50 μmol, 2 hours preincubation, NaF 1-8 mmol; compared with native FA
Description: Human epithelial lung cells (A549) were cultured and transferred to an isotonic medium. Cell suspensions were incubated with saline solution, native fatty acid (10 and 50 μmol), or nitro fatty acid (10 and 50 μmol) for 2 hours. Sodium fluoride (NaF) was added to achieve concentrations between 1 and 8 mmol. Cells were separated and washed after 24 hours of exposure. The MTT assay was used to evaluate apoptosis rates.

macrophages = test: Foreign body model (fusion of macrophages, IL-4); format: cell-based; details: polymeric coating on stainless steel; compared with native FA; further: key: 0: not superior to native FA (control); +: Superior to native FA; ++: superior to both; +++: outstanding effect
Description: Organisms react to the contact with a not completely biocompatible surface with a stereotypic chain of reactions. This is preceded by aggregation of plasmaproteins which initiate adhesion of monocytes. As a response to incompatibility, structural changes and fusion of those monocytes to form giant cells occur. The formation of giant cells is a key component in the development of a foreign body reaction. […] Predictability of foreign body reaction has been validated in an in-vitro model by monitoring fusion of macrophages in response to IL-4 exposition. Using this model a polymeric coating of a stainless steel support material containing variable amounts of nitro fatty acids or native fatty acids or just coated with the sole polymer were exposed to plasma with various concentrations of vitronectin.

Compound	Relative effect on cold induced injury (pericardial strips)	Relative effect on NaF-induced cytotoxicity [1]	Relative efficacy in foreign body model (macrophages)
9,10-nitro-cis-oleic acid [compound 10]	+		
CCCCCCCC/C=C(/CCCCCCCC(=O)O)[N+](=O)[O-] [compound 1, 9-nitro cis-oleic acid]	++	++	
CCCCC/C=C\C/C(=C\CCCCCCCC(=O)O)[N+](=O)[O-] [compound 2, 10-nitro-cis-linoleic acid]	++	++	
CCCCCCCC/C(=C/CCCCCCCC(=O)O)[N+](=O)[O-] [compound 3, 10-nitro-cis-oleic acid]	+	+	
CC/C=C\C/C=C\C/C=C(/CCCCCCCC(=O)O)[N+](=O)[O-] [compound 6, 9-nitro-all-cis-9-12,15-octadecatrienoic acid]	++		
CCCCCCCCCCC/C=C(/CCCCC(=O)O)[N+](=O)[O-] [compound 21, 6-nitro-cis-6-octadecenoic acid]	+		+
CCCCCC=CCC=C(CC=CC/C=C\CCCC(=O)O)[N+](=O)[O-] [compound 22, 11-nitro-cis-5,8,11,14-eicosatetraenoic acid]	++	++	++
